Test results from US20220119354A1, “DIAMINO-SUBSTITUTED PYRIDINES AND PYRIMIDINES AS HERBICIDES” (FMC Corporation, priority 2019, published 2022).

Columns and labels:
Assay type in all cases: in vivo
[1] = test system: barnyardgrass (Echinochloa crus-galli); experiment: Test A postemergence, barnyardgrass; details: 0 to 100 scale
Outline: (§1)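 Using a solvent/surfactant formulation, test chemicals were sprayed onto freshly seeded soil or onto 2–10 cm seedlings at the one- to two-leaf stage. Visual injury ratings on a 0–100 scale were made about 10 d later in the greenhouse.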

kochia (Kochia scoparia) [2] = experiment: Test A postemergence, kochia; details: 0 to 100 scale
Outline: as §1

[3] = test system: pigweed (Amaranthus retroflexus); experiment: Test A postemergence, pigweed; details: 0 to 100 scale
Outline: as §1

corn (Zea mays) = experiment: Test A postemergence, corn; details: 0 to 100 scale
Outline: as §1

[4] = test system: pigweed (Amaranthus retroflexus); experiment: Test A preemergence, pigweed; details: 0 to 100 scale; for Pigweed plant response rating: 0 is no effect, 100 is complete control
Outline: as §1

[5] = test system: foxtail, giant (Setaria faberii); experiment: Test A preemergence, giant foxtail; details: 0 to 100 scale; for Foxtail, Giant plant response rating: 0 is no effect, 100 is complete control
Outline: as §1

[6] = test system: blackgrass (Alopecurus myosuroides); experiment: Test A postemergence, blackgrass; details: 0 to 100 scale
Outline: as §1

[7] = test system: ducksalad (Heteranthera limosa); experiment: Test B flooded paddy test, ducksalad; details: Flood, 250 g ai/ha, applied to paddy water, 2-leaf stage, visual evaluation after 13 to 15 d
Outline: (§2)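 Pots flooded to 3 cm above the soil when treated, with test compound added straight to the water and the flood maintained. Treated plants were at the 2-leaf stage and stayed 13–15 d in greenhouse. Response versus untreated controls scored visually from 0 (no effect) to 100 (complete control).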

[8] = test system: barnyardgrass (Echinochloa crus-galli); experiment: Test A preemergence, barnyardgrass; details: 0 to 100 scale; for Barnyardgrass plant response rating: 0 is no effect, 100 is complete control
Outline: as §1

[9] = test system: foxtail, giant (Setaria faberii); experiment: Test A postemergence, giant foxtail; details: 0 to 100 scale
Outline: as §1

rice (Oryza sativa) = experiment: Test B flooded paddy test, rice; details: Flood, 250 g ai/ha, applied to paddy water, 2-leaf stage, visual evaluation after 13 to 15 d
Outline: as §2

[10] = test system: ryegrass, Italian (Lolium multiflorum); experiment: Test A preemergence, Italian ryegrass; details: 0 to 100 scale; for Ryegrass, Italian plant response rating: 0 is no effect, 100 is complete control
Outline: as §1

kochia (Kochia scoparia) [11] = experiment: Test A preemergence, kochia; details: 0 to 100 scale; for Kochia plant response rating: 0 is no effect, 100 is complete control
Outline: as §1

[12] = test system: sedge, umbrella (small-flower umbrella sedge, Cyperus difformis); experiment: Test B flooded paddy test, umbrella sedge; details: Flood, 250 g ai/ha, applied to paddy water, 2-leaf stage, visual evaluation after 13 to 15 d
Outline: as §2

[13] = test system: ragweed (common ragweed, Ambrosia elatior); experiment: Test A preemergence, ragweed; details: 0 to 100 scale; for Ragweed plant response rating: 0 is no effect, 100 is complete control
Outline: as §1

[14] = test system: barnyardgrass (Echinochloa crus-galli); experiment: Test B flooded paddy test, barnyardgrass; details: Flood, 250 g ai/ha, applied to paddy water, 2-leaf stage, visual evaluation after 13 to 15 d
Outline: as §2

[15] = test system: galium (catchweed bedstraw, Galium aparine); experiment: Test A postemergence, galium; details: 0 to 100 scale
Outline: as §1

[16] = test system: ragweed (common ragweed, Ambrosia elatior); experiment: Test A postemergence, ragweed; details: 0 to 100 scale
Outline: as §1

[17] = test system: wheat (Triticum aestivum); experiment: Test A postemergence, wheat; details: 0 to 100 scale
Outline: as §1

[18] = test system: ryegrass, Italian (Lolium multiflorum); experiment: Test A postemergence, Italian ryegrass; details: 0 to 100 scale
Outline: as §1

[19] = 125 g ai/ha, 0 no effect, 100 complete control
[20] = 500 g ai/ha, 0 is no effect, 100 is complete control

With `CC[C@@H](Nc1ncc(C(F)(F)F)c(N)n1)c1cc2ccccc2s1` [Compound 43] the “Plant response rating, Barnyardgrass” value [1, 19] was 20, the “Barnyardgrass plant response rating” value [1, 20] was 100 and the “Plant response rating, Kochia” value (kochia (Kochia scoparia) [2]; [19]) was 90. For the same compound, the “Kochia plant response rating” value (kochia (Kochia scoparia) [2]; [20]) was 90, the “Plant response rating, Pigweed” value [3, 19] was 100 and the “Pigweed plant response rating” value [3, 20] was 100. The “Plant response rating, Corn” value (corn (Zea mays); [19]) was 0, the “Corn plant response rating” value (corn (Zea mays); [20]) was 20 and the “Pigweed plant response rating” value ([4]; 125 g ai/ha) was 90. The “Pigweed plant response rating” value ([4]; 500 g ai/ha) was 100, the “Foxtail, Giant plant response rating” value ([5]; 125 g ai/ha) was 80 and the “Foxtail, Giant plant response rating” value ([5]; 500 g ai/ha) was 90. The “Plant response rating, Blackgrass” value [6, 19] was 0, the “Blackgrass plant response rating” value [6, 20] was 20 and the “Plant response rating, Ducksalad (0 to 100 scale, 0 is no effect, 100 is complete control)” value [7] was 0. For the same compound, the “Barnyardgrass plant response rating” value ([8]; 125 g ai/ha) was 70, the “Barnyardgrass plant response rating” value ([8]; 500 g ai/ha) was 70 and the “Plant response rating, Foxtail, Giant” value [9, 19] was 30. For the same compound, the “Foxtail, Giant plant response rating” value [9, 20] was 100, the “Plant response rating, Rice (0 to 100 scale, 0 is no effect, 100 is complete control)” value (rice (Oryza sativa)) was 0 and the “Ryegrass, Italian plant response rating” value ([10]; 125 g ai/ha) was 20. The “Ryegrass, Italian plant response rating” value ([10]; 500 g ai/ha) was 50, the “Kochia plant response rating” value (kochia (Kochia scoparia) [11]; 125 g ai/ha) was 90 and the “Kochia plant response rating” value (kochia (Kochia scoparia) [11]; 500 g ai/ha) was 100. The “Plant response rating, Sedge, Umbrella (0 to 100 scale, 0 is no effect, 100 is complete control)” value [12] was 0, the “Ragweed plant response rating” value ([13]; 125 g ai/ha) was 100 and the “Ragweed plant response rating” value ([13]; 500 g ai/ha) was 100. The “Plant response rating, Barnyardgrass (0 to 100 scale, 0 is no effect, 100 is complete control)” value [14] was 0, the “Plant response rating, Galium” value [15, 19] was 70 and the “Galium plant response rating” value [15, 20] was 90. For the same compound, the “Plant response rating, Ragweed” value [16, 19] was 60, the “Ragweed plant response rating” value [16, 20] was 90 and the “Plant response rating, Wheat” value [17, 19] was 0. For the same compound, the “Wheat plant response rating” value [17, 20] was 0, the “Plant response rating, Ryegrass, Italian” value [18, 19] was 40 and the “Ryegrass, Italian plant response rating” value [18, 20] was 40.

In the case of `Nc1nc(NC(c2cc3ccccc3o2)C2CC2)ncc1C(F)(F)F` (racemic) [Compound 18], the “Plant response rating, Barnyardgrass” value ([1]; 125 g ai/ha) is reported as 10, the “Plant response rating, Barnyardgrass” value ([1]; 500 g ai/ha) is reported as 80 and the “Plant response rating, Kochia” value (kochia (Kochia scoparia) [2]; 125 g ai/ha) is reported as 50. For the same compound, the “Plant response rating, Kochia” value (kochia (Kochia scoparia) [2]; 500 g ai/ha) was 90, the “Plant response rating, Pigweed” value ([3]; 125 g ai/ha) was 90 and the “Plant response rating, Pigweed” value ([3]; 500 g ai/ha) was 100. The “Plant response rating, Corn” value (corn (Zea mays); 125 g ai/ha) was 0, the “Plant response rating, Corn” value (corn (Zea mays); 500 g ai/ha) was 0 and the “Plant response rating, Pigweed” value ([4]; 125 g ai/ha) was 90. The “Plant response rating, Pigweed” value ([4]; 500 g ai/ha) was 100, the “Plant response rating, Foxtail, Giant” value ([5]; 125 g ai/ha) was 90 and the “Plant response rating, Foxtail, Giant” value ([5]; 500 g ai/ha) was 90. For the same compound, the “Plant response rating, Blackgrass” value ([6]; 125 g ai/ha) was 20, the “Plant response rating, Blackgrass” value ([6]; 500 g ai/ha) was 80 and the “Plant response rating, Ducksalad (0 to 100 scale, 0 is no effect, 100 is complete control)” value [7] was 85. The “Plant response rating, Barnyardgrass” value ([8]; 125 g ai/ha) was 50, the “Plant response rating, Barnyardgrass” value ([8]; 500 g ai/ha) was 80 and the “Plant response rating, Foxtail, Giant” value ([9]; 125 g ai/ha) was 0. For the same compound, the “Plant response rating, Foxtail, Giant” value ([9]; 500 g ai/ha) was 70, the “Plant response rating, Rice (0 to 100 scale, 0 is no effect, 100 is complete control)” value (rice (Oryza sativa)) was 0 and the “Plant response rating, Ryegrass, Italian” value ([10]; 125 g ai/ha) was 50. For the same compound, the “Plant response rating, Ryegrass, Italian” value ([10]; 500 g ai/ha) was 50, the “Plant response rating, Kochia” value (kochia (Kochia scoparia) [11]; 125 g ai/ha) was 0 and the “Plant response rating, Kochia” value (kochia (Kochia scoparia) [11]; 500 g ai/ha) was 60. The “Plant response rating, Sedge, Umbrella (0 to 100 scale, 0 is no effect, 100 is complete control)” value [12] was 98, the “Plant response rating, Ragweed” value ([13]; 125 g ai/ha) was 80 and the “Plant response rating, Ragweed” value ([13]; 500 g ai/ha) was 100. For the same compound, the “Plant response rating, Barnyardgrass (0 to 100 scale, 0 is no effect, 100 is complete control)” value [14] was 0, the “Plant response rating, Galium” value ([15]; 125 g ai/ha) was 40 and the “Plant response rating, Galium” value ([15]; 500 g ai/ha) was 90. For the same compound, the “Plant response rating, Ragweed” value ([16]; 125 g ai/ha) was 20, the “Plant response rating, Ragweed” value ([16]; 500 g ai/ha) was 70 and the “Plant response rating, Wheat” value ([17]; 125 g ai/ha) was 20. The “Plant response rating, Wheat” value ([17]; 500 g ai/ha) was 10, the “Plant response rating, Ryegrass, Italian” value ([18]; 125 g ai/ha) was 0 and the “Plant response rating, Ryegrass, Italian” value ([18]; 500 g ai/ha) was 30.
